According to ChEMBL document CHEMBL5729033, “Macrocyclic compounds that inhibit MCL-1 protein” (2022):

Target: Induced myeloid leukemia cell differentiation protein Mcl-1/Bcl-2-like protein 11 (Homo sapiens, UniProt Q07820)
Assay: Cell Free Mcl-1:Bim Affinity Assay (Mcl-1 HTRF): The inhibition of the Mcl-1/Bim interaction was measured using a time-resolved fluorescence resonance energy transfer (TR-FRET) assay. The recombinant human Mcl-1 (C-terminally 6×His tagged Mcl-1 containing residues 171-327) was generated at Amgen Inc (Thousand Oaks, Calif.). A biotinylated peptide derived from human Bim (residues 51-76) was purchased from CPC Scientific (San Jose, Calif.). The TR-FRET assay was conducted in a 384-well white OptiPlate™ (PerkinElmer, Waltham, Mass.) in a total volume of 40 μL. The reaction mixture contained 0.1 nM Mcl-1(171-327), 0.05 nM biotin-Bim(51-76), 0.05 nM LANCES Eu-W1024 Anti-6×His (PerkinElmer), 0.072 nM Streptavidin-Xlent (Cisbio, Bedford, Mass.), and serially diluted test compounds in the binding buffer of 20 mM Hepes, pH 7.5, 150 mM NaCl, 0.016 mM Brij®35, and 1 mM dithiothreitol. Test compounds were pre-incubated with Mcl-1(171-327) and biotin-Bim (51-76) for 60 min before addition of the detection mixture (LANCE® Eu-W1024 Anti-6×His and Streptavidin-Xlent). The reaction plates were further incubated overnight and then were read on an Envision® multimode reader (PerkinElmer). Fluorescence signals were measured at 620 nm (40-nm bandwidth) and 665 nm (7.5-nm bandwidth) with a 60 μs delay after excitation at 320 nm (75-nm bandwidth). […]
Format: protein assay

Sequence of Induced myeloid leukemia cell differentiation protein Mcl-1/Bcl-2-like protein 11 (Q07820 whole entry, the tested form may be a part): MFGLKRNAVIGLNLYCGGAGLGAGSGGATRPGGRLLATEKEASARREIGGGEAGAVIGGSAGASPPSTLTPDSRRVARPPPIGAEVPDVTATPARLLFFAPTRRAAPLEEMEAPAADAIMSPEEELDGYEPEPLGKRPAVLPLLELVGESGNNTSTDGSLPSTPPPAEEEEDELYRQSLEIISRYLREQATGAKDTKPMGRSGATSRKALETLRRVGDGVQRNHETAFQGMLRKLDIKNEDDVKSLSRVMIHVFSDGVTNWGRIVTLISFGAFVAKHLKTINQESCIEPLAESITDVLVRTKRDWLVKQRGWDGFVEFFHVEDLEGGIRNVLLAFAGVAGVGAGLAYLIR
Sequence of Induced myeloid leukemia cell differentiation protein Mcl-1/Bcl-2-like protein 11 (O43521 whole entry, further chain, the tested form may be a part): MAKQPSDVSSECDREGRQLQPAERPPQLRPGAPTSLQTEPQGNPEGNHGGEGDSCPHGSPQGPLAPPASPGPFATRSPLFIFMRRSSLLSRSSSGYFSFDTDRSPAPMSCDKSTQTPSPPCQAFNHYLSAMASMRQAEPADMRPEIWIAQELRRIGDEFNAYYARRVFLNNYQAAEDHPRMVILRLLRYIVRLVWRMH

Row | SMILES | IC50
1 | C[C@@H]1[C@@H](C)CCC[C@H](CN2CCN3CCN(C(=O)OC(C)(C)C)C[C@@H]3C2)[C@@H]2CC[C@H]2CN2C[C@@]3(CCCc4cc(Cl)ccc43)COc3ccc(cc32)C(=O)NS1(=O)=O | 1420 pM
2 | C[C@@H]1[C@@H](C)CCC[C@@H](CC(=O)N2CCN3CCOC[C@H]3C2)[C@@H]2CC[C@H]2CN2C[C@@]3(CCCc4cc(Cl)ccc43)COc3ccc(cc32)C(=O)NS1(=O)=O | 123 pM
